Assay results: patent EP1724268A1, “COMPOUND HAVING TGF-BETA INHIBITORY ACTIVITY AND PHARMACEUTICAL COMPOSITION CONTAINING SAME” (KIRIN BEER KABUSHIKI KAISHA, priority 2004, dated 2005)
Like-named read-outs stand apart in the source and are kept apart here.

Test system: TGFβ signal
Assay: TGFβ signal inhibitory activity, (SBE)4-Luc reporter in A549 cells (Test Examples 1A and 1B)
Type: cell-based, human
Conditions: Homo sapiens, A549, read-out: TGFβ inhibition rate, %
Experimental: Test Example 1A: TGFβ signal inhibitory activity (in vitro test) The compounds according to the present invention was evaluated for TGFβ signal inhibitory activity according to the method described in J. Boil .Chem., 273, 21145-21152 (1998). Specifically, a plasmid having four tandem binding sequences of Smad3, a TGF-beta signal transducer, to the upstream of a luciferases gene were used as a reporter plasmid ((SBE)4-Luc) to detect TGF-beta signal, This reporter gene was introduced into human pulmonary carcinoma epithelial cells (A549) (available from ATCC) to establish a stable cell line. A test compound and TGFβ-1 (2 ng/ ml) were added to the cells, and the mixture was cultured for 4 hr. In this case, the compounds according to the present invention synthesized in the Examples were used as the test compound. After the culture, the luciferase activity of the cells were measured by chemiluminescence (Steady Glo (trademark) luciferase assay system, available from Promega). Likewise, the luciferase activity was measured as a control against the culture of cells with the addition of TGFβ only and the culture of cells without the addition of both TGFβ and the test compound.
The TGFβ inhibition (%) was calculated by the following equation, based on the measurement results. TGFβ inhibition(%) = (A-B)/(A-C) × 100 [formula] wherein • A: luciferase activity with the addition of TGFβ1 and without the addition of test compound (relative luciferase unit), • B: luciferase activity with the addition of both TGFβ1 and test compound (relative luciferase unit), and • C: luciferase activity without the addition of both TGFβ1 and test compound (relative luciferase unit).
The test was carried out for each of test compound at the concentrations of 3 µM and 10 µM. For certain test compounds, the test was further carried out for test compound at the concentration of 1 µM.
For the compounds of Reference Examples, the TGFβ signal inhibitory activity was evaluated in the same manner as in Test Example 1A.

[1] = 3 µM, compounds of Reference Examples (Test Example 1B)
[2] = 10 µM, compounds of Reference Examples (Test Example 1B)
[3] = test compound 3 µM, Reference Examples, Table 1B
[4] = test compound 10 µM, Reference Examples, Table 1B
[5] = test compound 3 µM, TGFβ-1 2 ng/ml, 4 hr, Table 1A
[6] = test compound 10 µM, TGFβ-1 2 ng/ml, 4 hr, Table 1A

SMILES | inhibition at 3 µM [1] [%] | inhibition at 10 µM [2] [%] | inhibition at 3 µM [3] [%] | inhibition at 10 µM [4] [%] | also measured
COc1cc2nccc(Oc3ccc(C)nc3C#C[Si](C)(C)C)c2cc1OC [r212] | 94 | 100 |  |  | 
COc1cc2nccc(Oc3ccc(C)nc3-c3cccc(F)c3)c2cc1OC [Compound r240] | 100 | 100 |  |  | 
CCCOC(=O)c1cc2ccccc2cc1Oc1ccnc2cc(OCCN3CCOCC3)c(OC)cc12 [Compound r323] | 89 | 100 |  |  | 
CCCCCCCCOc1ccc(C(=O)c2ccccc2)c(Oc2ccnc3cc(OC)c(OC)cc23)c1 [Compound r66] |  |  | 22 | 86 | 
COc1cc2c(Oc3ccc(C)cc3C(=O)c3ccccc3)ccnc2cc1OCC(O)CN1CCOCC1 (stereo not shown) [Compound r159] |  |  | 98 | 100 | 
COc1cc2nccc(Oc3ccc(C)cc3C(=O)c3ccc(C(C)(C)C)cc3)c2cc1OC [r73] |  |  | 24 | 81 | 
COc1cc2nccc(Oc3ccc4c(c3)COC(=O)N4)c2cc1OC [Compound r23, 6-[(6,7-Dimethoxy-4-quinolyl)oxy]-1,4-dihydro-2H-3,1-benzoxazin-2-one] |  |  | 56 | 91 | 
COc1cc2nccc(Oc3cc(C)ccc3C(C)=O)c2cc1OC [Compound r32] |  |  | 81 | 98 | 
COc1cc2c(Oc3cc4cccnc4nc3-c3ccccc3)ccnc2cc1Cl [Compound 61, 3-(7-Chloro-6-methoxy-quinolin-4-yloxy)-2-phenyl-[1,8]naphthyrridine] |  |  |  |  | inhibition at 3 µM [5]: 98%; inhibition at 10 µM [6]: 100%
COC(=O)c1cc2nccc(Oc3cc4cccnc4nc3-c3ccccc3)c2cc1OC [Compound 116, Methyl 6-methoxy-4-(2-phenyl-[1,8]naphthyridin-3-yloxy)-quinoline-7-carboxylate] |  |  |  |  | inhibition at 3 µM [5]: 99%; inhibition at 10 µM [6]: 100%
CC/C=C\CCOC(=O)c1ccccc1Oc1ccnc2cc(OC)c(OC)cc12 [Compound r100] |  |  | 0 | 82 | 
COc1cc2nccc(Oc3ccc(C)nc3-c3cccnc3)c2cc1OC [Compound r262] | 91 | 100 |  |  | 
COc1cc2c(Oc3cc4ccccc4nc3C)ccnc2cc1OCCCn1ccnc1 [Compound r381] | 100 | 100 |  |  | 
C=CCON=C(C)c1cc(C)c(C)cc1Oc1ccnc2cc(OC)c(OC)cc12 [Compound r197] | 40 | 88 |  |  | 
COc1cc2c(Oc3cc(C)c(C)nc3-c3cccc(C)n3)ccnc2cc1OCc1ccccc1 [Compound r442] | 70 | 100 |  |  | 
COc1cc2c(Oc3cc4ccccc4nc3C)ccnc2cc1OCCN1CCCC(CO)C1 (stereo not shown) [Compound r359] | 100 | 100 |  |  | 
Cc1cc(Oc2ccnc3c(F)cc(F)cc23)c(-c2ccccn2)nc1C [Compound 111, 3-(6,8-Difluoro-quinolin-4-yloxy)-5,6-dimethyl-[2,2']bipyridine] |  |  |  |  | inhibition at 3 µM [5]: 43%; inhibition at 10 µM [6]: 84%
COc1cc2c(Oc3cc4ccccc4nc3C)ccnc2cc1OCCCN1C(=O)c2ccccc2C1=O [Compound r380] | 50 | 89 |  |  | 
COc1cc2nccc(Oc3cc4ccncc4cc3-c3ccccn3)c2cc1OC [Compound r303, 6,7-Dimethoxy-4-(7-pyridin-2-yl-isoquinolin-6-yloxy)-quinoline] | 96 |  |  |  | 
COc1cc2nccc(Oc3ccc(C)cc3C(C)=O)c2cc1OC [Compound r35] |  |  | 49 | 89 | 
COc1cc2nccc(Oc3cc(C)c(C)nc3-c3ccccn3)c2cc1OCc1ccccc1 [Compound 138, 3-(6-Benzyloxy-7-methoxy-quinolin-4-yloxy)-5,6-dimethyl-[2,2'] bipyridine] |  |  |  |  | inhibition at 3 µM [5]: 98%; inhibition at 10 µM [6]: 100%
c1cnc2nc(-c3csc4ccccc34)c(Oc3ccnc4ccccc34)cc2c1 [Compound 90, 2-Benzo[b]thiophen-3-yl-3-(quinolin-4-yloxy)-[1,8]naphthyridine] |  |  |  |  | inhibition at 3 µM [5]: 22%; inhibition at 10 µM [6]: 68%
